Results on nine molecules are retold here after PMC7982521, “Studies on the Changes of Pharmacokinetics Behaviors of Phytochemicals and the Influence on Endogenous Metabolites After the Combination of Radix Bupleuri and Radix Paeoniae Alba Based on Multi-Component Pharmacokinetics and Metabolomics” (Frontiers in Pharmacology, 2021).

Where two headings read alike, the source gives them in different places.

This series can be described thus: Multi-component pharmacokinetics in rat plasma after oral administration of RB, RPA or RB-RPA extracts (UPLC-HRMS, non-compartmental analysis). It counts as in vivo, Sprague-Dawley rats. The settings on record: for AUC0-t / AUC0-∞ / Cmax / t1/2 / tmax / AUC(0-inf) / half-life / Cmax, second value / tmax, second value: rat plasma, n = 7; for AUC0-t / AUC0-∞ / Cmax / t1/2 / tmax / AUC(0-inf) / half-life: mean ± SD; for change of AUC0-∞ after combination: oral RB-RPA group vs single herbal group (RB or RPA). Here is the method:
(Beijing, China, No. SCXK2018-0011). […] All rats were free to access the water and food until 12 h before the experiment. The animal study was reviewed and approved by the Experimental Animal Ethical Committee of Modern Research Center for Traditional Chinese Medicine, Shanxi University (animal ethic approval number: SXULL2018018), and all experimental procedures were carried out in accordance with the NIH Guide for the Care and Use of Laboratory Animals. After one week of adaptation, twenty-one rats were divided into three groups randomly, with seven rats in each group: 1) RPA group, were oral administration of Radix Paeoniae Alba extract (45 g-herb/kg); 2) RB group, were oral administration of Radix Bupleuri extract (45 g-herb/kg); 3) RB-RPA group, were oral administration of powder mixture of Radix Bupleuri and Radix Paeoniae Alba extracts (containing 45 g-herb/kg Radix Bupleuri and 45 g-herb/kg Radix Paeoniae Alba). […] Each group received intragastric administration with a volume of 10 ml/kg (rat body weight). […] All rats were free to access the water during the experiment. The blood samples at each time point were collected from seven rats. The blood samples were centrifuged at 4,000 rpm for 10 min and frozen at -80°C until analysis. Using a Thermo-Fisher Dionex UltiMate 3000 UHPLC system coupled with a Q Exactive Orbitrap-MS (Thermo-Fisher, United States) and Xcalibur workstation (Thermo-Fisher Scientific Inc.,Waltham, MA, United States) to acquire UPLC-HRMS raw data. Chromatographic separation of herb extracts and plasma samples was performed on an Acquity UPLC HSS T3 column (2.1 mm × 100 mm, 1.8 μm) maintained at 37°C. The flow rate was 0.2 ml/min and the injection volume was 5 μL. […] Mass spectrometry detection conditions were set as follows: the MS data were acquired under positive and negative ionization modes via heated electrospray ionization (HESI) source. […] The Q Exactive Orbitrap-MS has a fast positive and negative ion switching function, which could switch between positive-negative ion modes during the analysis of the same sample. So, we applied the method of switching ion modes in the detection process to quantify all analytes better. […] UPLC/MS/MS calibration and quantitation data were processed with Xcalibur workstation (Thermo-Fisher Scientific Inc., Waltham, MA, United States). For the eight components with standard reference, calculating their concentrations from the standard curves. For the other 30 components without standard reference, their concentrations were analyzed following the regression equations of homologous compounds ([Qiao et al., 2012]): paeoniflorin for P1 and M1 to M3; methylgallate for M4 to M10; saikosaponin […] and […]; saikosaponin […]; saikosaponin […]; saikosaponin B2 for P11 and M25 to […].

[1] abbreviates: oral RB single extract 45 g-herb/kg.
The mark [2] stands for this setting: oral RB-RPA mixed extracts (45 g-herb/kg RB + 45 g-herb/kg RPA).
[3] abbreviates: oral administration of mixed extracts RB-RPA.
Setting [4] is: oral administration of single extract RPA.
[5] abbreviates: male, Sprague-Dawley, rat, plasma, po, 45 g/kg, oral administration of mixed extracts RB-RPA.
Setting [6] is: male, Sprague-Dawley, rat, plasma, po, 45 g/kg, oral administration of mixed extracts RB-RPA, read-out: AUC0-t.
[7] abbreviates: male, Sprague-Dawley, rat, plasma, po, 45 g/kg, oral administration of mixed extracts RB-RPA, read-out: Cmax.
Where [8] appears, read: male, Sprague-Dawley, rat, plasma, po, 45 g/kg, oral administration of mixed extracts RB-RPA, read-out: tmax.
Where [9] appears, read: male, Sprague-Dawley, rat, plasma, po, 45 g/kg, oral administration of single extract RPA.
Setting [10] is: male, Sprague-Dawley, rat, plasma, po, 45 g/kg, oral administration of single extract RPA, read-out: AUC0-t.
Where [11] appears, read: male, Sprague-Dawley, rat, plasma, po, 45 g/kg, oral administration of single extract RPA, read-out: Cmax.

In general, Cmax refers to the peak of the concentration-time curve. In the case of `CC(=O)OC[C@H]1O[C@@H](O[C@H]2[C@@H](O)[C@@H](C)O[C@@H](O[C@H]3CC[C@@]4(C)[C@@H](CC[C@]5(C)[C@@H]4C=CC46OCC7(CCC(C)(C)C[C@H]74)[C@@H](O)C[C@]65C)[C@]3(C)CO)[C@@H]2O)[C@H](O)[C@@H](O)[C@@H]1O` (stereo partly shown) [Acetyl-saikosaponin A], under setting [1], the AUC0-t amounted to 51.16 ± 11.83 ng·h/mL, the “AUC0-∞” value was 57.19 ± 10.74 ng·h/mL, the Cmax came to 29.39 ± 11.24 ng/mL and the t1/2 stood at 3.50 ± 0.74 h. Further, the tmax under setting [1] stood at 0.46 ± 0.19 h. Under setting [2], the AUC0-t was 62.08 ± 16.91 ng·h/mL, the “AUC0-∞” value turned out to be 67.17 ± 16.28 ng·h/mL, the Cmax stood at 27.55 ± 9.89 ng/mL and the t1/2 amounted to 4.38 ± 1.27 h. Besides, the tmax under setting [2] came to 0.54 ± 0.19 h.

With `CC(=O)OC[C@H]1O[C@@H](O[C@H]2[C@@H](O)[C@@H](C)O[C@@H](O[C@H]3CC[C@@]4(C)[C@@H](CC[C@]5(C)[C@@H]4C=CC46OCC7(CCC(C)(C)C[C@H]74)[C@H](O)C[C@]65C)[C@]3(C)CO)[C@@H]2O)[C@H](O)[C@@H](O)[C@@H]1O` (stereo partly shown) [Acetyl-saikosaponin D], under setting [1], the AUC0-t is 23.58 ± 6.77 ng·h/mL, the “AUC0-∞” value is 25.54 ± 7.23 ng·h/mL, the Cmax worked out at 19.20 ± 6.70 ng/mL and the t1/2 amounted to 2.68 ± 0.71 h. Also, the tmax under setting [1] is 0.50 ± 0.27 h. Under setting [2], the AUC0-t amounted to 38.05 ± 21.32 ng·h/mL, the “AUC0-∞” value stood at 43.25 ± 27.08 ng·h/mL, the Cmax turned out to be 20.31 ± 12.42 ng/mL and the t1/2 was 4.39 ± 1.55 h. Under setting [2], the tmax was found to be 0.50 ± 0.27 h.

As for `C[C@]12C[C@@H](O)[C@@H]3C[C@@]1(O[C@@H]1O[C@H](CO)[C@@H](O)[C@H](O)[C@H]1O)[C@@]3(COC(=O)c1ccccc1)C(=O)O2` [Albiflorin], under setting [2], the Cmax came to 365.94 ± 41.75 ng/mL. The same molecule came in with a Cmax (oral RPA single extract 45 g-herb/kg) of 271.50 ± 63.29 ng/mL. Under setting [3], the AUC0-t worked out at 1834.06 ± 191.89 ng·h/mL, the “AUC0-∞” value amounted to 1849.80 ± 396.92 ng·h/mL, the peak concentration (Cmax) worked out at 365.94 ± 41.75 ng/mL and the t1/2 worked out at 3.46 ± 0.56 h. Also, the tmax under setting [3] was 0.71 ± 0.25 h. In addition, under setting [4], the AUC0-t was 1202.69 ± 302.31 ng·h/mL, the “AUC0-∞” value came to 1210.33 ± 303.04 ng·h/mL, the Cmax came out at 271.50 ± 63.29 ng/mL and the t1/2 was determined as 3.19 ± 0.58 h. Also, the tmax under setting [4] was 1.25 ± 0.89 h. Moreover, the “change of AUC0-∞ after combination” value (rat) is listed as “significantly increased”.

Turning to `C[C@@]12C[C@@]3(O)O[C@@H](O1)[C@]1(CO)[C@H]3C[C@@]12O[C@@H]1O[C@H](CO)[C@@H](O)[C@H](O)[C@H]1O` [Desbenzoylpaeoniflorin], under setting [3], the AUC0-t is 27.39 ± 15.84 ng·h/mL, the “AUC0-∞” value was determined as 28.66 ± 16.13 ng·h/mL, the Cmax came out at 10.12 ± 5.32 ng/mL and the t1/2 came to 2.17 ± 0.95 h. Besides, the tmax under setting [3] was determined as 0.58 ± 0.13 h. Moreover, under setting [4], the AUC0-t is 18.66 ± 9.99 ng·h/mL, the “AUC0-∞” value is 20.34 ± 9.44 ng·h/mL, the Cmax was 8.76 ± 4.90 ng/mL and the t1/2 stood at 2.72 ± 1.32 h. In addition, under setting [4], the tmax was determined as 0.75 ± 0.16 h.

One may read the AUC(0-inf) as the area under the concentration-time curve extrapolated to infinity. By half-life is commonly meant how long it takes for the measured level to halve. On to `COC(=O)c1cc(O)c(O)c(O)c1` [Methyl gallate], for which the AUC(0-inf) reads like this: under setting [5], 213 ± 40.5 ng·h/mL; under setting [9], 144 ± 59.1 ng·h/mL. In addition, the half-life is 4.77 ± 3.32 h under setting [5] and 4.11 ± 2.31 h under setting [9]. Further, the AUC0-t under setting [6] came out at 187 ± 42.4 ng·h/mL and the AUC0-t under setting [10] was determined as 141 ± 61.3 ng·h/mL. In addition, the peak concentration (Cmax) was found to be 57.6 ± 7.34 ng/mL under setting [7] and 48.6 ± 9.47 ng/mL under setting [11]. Further, the tmax is, setting by setting: under setting [8], 0.5 ± 0.16 h; (male, Sprague-Dawley, rat, plasma, po, 45 g/kg, oral administration of single extract RPA, read-out: tmax) 0.58 ± 0.13 h. Also, for the setting “rat”, the “change of AUC0-∞ after combination” value is on record as “significantly increased”.

For `C[C@@]12C[C@@]3(O)O[C@@H](O1)[C@]1(COC(=O)c4ccccc4)[C@H]3C[C@@]12O[C@@H]1O[C@H](CO)[C@@H](O)[C@H](O)[C@H]1O` [Paeoniflorin], the Cmax (male, Sprague-Dawley, rat, plasma, po, 45 g-herb/kg, oral RPA single extract 45 g-herb/kg, read-out: Cmax) came out at 1780 ± 513 ng/mL; the Cmax under setting [7] amounted to 2930 ± 386 ng/mL; the Cmax under setting [11] came out at 1780 ± 513 ng/mL; the Cmax (male, Sprague-Dawley, rat, plasma, po, oral RB-RPA mixed extracts (45 g-herb/kg RB + 45 g-herb/kg RPA), read-out: Cmax) was 2930 ± 386 ng/mL. Also, the AUC(0-inf) runs as follows: under setting [5], 7170 ± 1140 ng·h/mL; under setting [9], 4260 ± 873 ng·h/mL. In addition, the half-life under setting [5] was 1.96 ± 0.37 h. Moreover, the AUC0-t was 7170 ± 1140 ng·h/mL under setting [6] and 4260 ± 869 ng·h/mL under setting [10]. Moreover, under setting [8], the tmax was determined as 0.33 ± 0.13 h. The t1/2 under setting [4] worked out at 2.71 ± 0.72 h. The “change of AUC0-∞ after combination” value (rat) is “significantly increased”.

`CC1C2OC3(C)CC(=O)C1CC3(O)O2` (stereo not shown) [Paeonimetabolin I]: under setting [3], the AUC0-t came out at 4248.67 ± 1970.10 ng·h/mL, the “AUC0-∞” value was 4806.68 ± 2129.42 ng·h/mL, the Cmax stood at 575.13 ± 257.81 ng/mL and the t1/2 turned out to be 7.11 ± 2.01 h. For the same molecule, under setting [3], the tmax is 0.83 ± 0.13 h. Under setting [4], the AUC0-t turned out to be 4864.64 ± 2525.32 ng·h/mL, the “AUC0-∞” value came to 5467.27 ± 2837.33 ng·h/mL, the Cmax worked out at 658.61 ± 349.75 ng/mL and the t1/2 worked out at 7.39 ± 0.45 h. The molecule further yielded a tmax under setting [4] of 0.75 ± 0.00 h.

In the case of `C[C@H]1O[C@@H](O[C@H]2CC[C@@]3(C)[C@@H](CC[C@]4(C)[C@@H]3C=CC3=C5CC(C)(C)CC[C@]5(CO)[C@H](O)C[C@]34C)[C@]2(C)CO)[C@H](O)[C@@H](O)[C@H]1O` [Prosaikogenin D], under setting [1], the AUC0-t was 27.23 ± 10.38 ng·h/mL, the “AUC0-∞” value was 31.50 ± 8.81 ng·h/mL, the Cmax came to 7.47 ± 3.88 ng/mL and the t1/2 is 3.38 ± 1.75 h. Moreover, under setting [1], the tmax was determined as 0.83 ± 0.52 h; the “Cmax, second value” amounted to 6.32 ± 3.38 ng/mL; the “tmax, second value” came out at 1.75 ± 1.02 h. Under setting [2], the AUC0-t was determined as 32.79 ± 15.58 ng·h/mL, the “AUC0-∞” value turned out to be 34.59 ± 14.83 ng·h/mL, the Cmax is 8.53 ± 4.68 ng/mL and the t1/2 turned out to be 2.98 ± 1.07 h. Under setting [2], the tmax stood at 0.71 ± 0.40 h. For the same molecule, where the note is “oral RB-RPA mixed extracts”, the “Cmax, second value” was found to be 8.42 ± 4.54 ng/mL and the “tmax, second value” came to 1.86 ± 0.92 h.

For `C[C@H]1O[C@@H](O[C@H]2CC[C@@]3(C)[C@@H](CC[C@]4(C)[C@@H]3C=C[C@]35OC[C@@]6(CCC(C)(C)C[C@H]63)[C@@H](O)C[C@]54C)[C@]2(C)CO)[C@H](O)[C@@H](O)[C@H]1O` [Prosaikogenin F], under setting [1], the AUC0-t turned out to be 54.21 ± 25.01 ng·h/mL, the “AUC0-∞” value stood at 57.97 ± 25.49 ng·h/mL, the highest concentration (Cmax) turned out to be 14.68 ± 6.91 ng/mL and the t1/2 came out at 2.91 ± 0.84 h. For the same molecule, the tmax under setting [1] is 1.54 ± 0.78 h. Moreover, under setting [2], the AUC0-t was determined as 71.62 ± 34.91 ng·h/mL, the “AUC0-∞” value was found to be 77.58 ± 36.46 ng·h/mL, the Cmax came to 18.36 ± 8.50 ng/mL and the t1/2 is 3.46 ± 0.55 h. Also, the tmax under setting [2] worked out at 1.62 ± 0.74 h.
